Entries after “also recorded” stand apart in the source; their conditions may differ.
Assays:
[1] = tested on: PAECs; assay: Cellular apoptosis, caspase-3/7 activity (Caspase-Glo 3/7) in PAECs; type: cell-based, human
Protocol: The hypoxia chamber (modular incubator chamber) was obtained from Billups-Rothenberg Inc. (Del Mar, Cali) and placed in regulated CO2 incubator at 37° C.
Cellular apoptosis: Caspase-3/7 activity was quantified using the Caspase-Glo 3/7 Assay (Promega), according to manufacturer's instructions. Caspase-3/7 activity was normalized to total protein content determined by BCA method (Thermo Fisher Scientific).

[2] = tested on: PASMCs; assay: RT-qPCR gene expression in PASMCs; type: cell-based, human; details: hypoxia, BRD2889 5 uM
From the text: Cell culture: Primary human pulmonary artery endothelial cells (PAECs) and human pulmonary artery smooth muscle cells (PASMCs) were purchased from Lonza (302-05A, CC-2581). Of note, the same two male donors were the source of all PAECs in the experiments shown. Two additional male donors were the source for all PASMCs in the experiments shown. Cells from these and any donors were characterized by flow cytometry for consistent expression of cell surface markers and by RNA (RT-qPCR) analysis of endothelial and smooth muscle gene expression. PAECs were cultured in EGM-2 media (CC-3121) along with supplements (CC-4133), and PASMCs were cultured in SmGM-2 culture media (Lonza, CC-3182) at 5% CO2 in a humidified incubator.
RT-qPCR analysis: Cells were lysis in 1 ml of QiaZol reagent (Qiagen). Total RNA content was extracted using the RNeasy kit (Qiagen), according to the manufacturer's instructions. Total RNA concentration was determined using a BioTek Synergy multimode plate reader. Messenger RNAs were reverse transcribed to generate cDNA using the Multiscript RT kit (Thermo Fisher Scientific). cDNA for specific gene targets was amplified and quantified via fluorescently-labeled Taqman primer sets and Taqman fast advanced master mix (Thermo Fisher Scientific) using an Applied Biosystems QuantStudio 6 Flex Real-Time PCR System.

[3] = tested on: SU5416-hypoxic pulmonary arterial hypertension rats; assay: SU5416-hypoxia pulmonary arterial hypertension rat model, disease-reversal dosing; type: in vivo, Sprague-Dawley rats
Protocol: Briefly, 10 week old male Sprague-Dawley rats were injected i.p. with 20 mg/kg of SU5416 (Sigma), placed in normobaric hypoxia (10% 02) for 3 weeks and then transferred to normoxia for 2 weeks. During hypoxic exposure, chambers were opened twice a week for cleaning and replenishment of food and water. […] For BRD2889 vs. vehicle control dosing, i.p. injections every 5 days (5 mg/kg) were administered during the final two weeks of normoxia. Oxygen concentrations were continuously monitored with blood gas analyzers.
Measurement of GST activity: The GST activity from lung tissue and PAECs was assayed using GST assay kit (Cayman, MI, USA) per the manufacturer's instructions.
Rodent echocardiography: Echocardiography was performed using a 15-45M Hz transthoracic transducer and a Visual Sonics Vevo 3100 system (Fujifilm). Inhaled isoflurane anesthesia was used at 2% in 100% 02 during positioning and hair removal and then decreased to isoflurane 0.8% during imaging.

[4] = tested on: glutathione S-transferase (GST); assay: Measurement of GST activity in PAECs; type: cell-based, human
Protocol: (§1) BRD2889 (1 uM) vs. vehicle control were added, as indicated, and placed into a hypoxia chamber for 24 h. The hypoxia chamber (modular incubator chamber) was obtained from Billups-Rothenberg Inc. (Del Mar, Cali) and placed in regulated CO2 incubator at 37° C.

[5] = tested on: ISCU; assay: Immunoblot and densitometry of ISCU and GSTP1 in PASMCs; type: cell-based, human; details: IL-6/sIL-6R + hypoxia, BRD2889 1 uM
Protocol: as §1
Immunoblot and densitometry: Cells were lysed in RIPA buffer (Sigma) along with 1× protease inhibitor cocktail (Sigma). Protein lysate was resolved by gradient 4%-15% SDS-PAGE gels and transferred onto a 0.2 μm PVDF membrane (Bio-Rad). Membranes were blocked in 5% non-fat milk in 1×PBST buffer for one hour at room temperature. Later, they were incubated in the presence of the primary antibody overnight at 4° C., and then appropriate HRP-conjugated secondary antibodies (Life Technologies). The following antibodies were used: human LGALS8 (AF1305, RnD Systems), mouse/rat Lgals8 ([…], Abcam), pSTAT1 (ab29045, Abcam) and STAT1 (ab47425, Abcam), GSTP1 (ab153949, Abcam), ISCU (14812-1-AP, Pointech), Glutathione (ab19534, Abcam), HIF2A (NB100-122, Novous), α-Tubulin (CP06, Millipore sigma), and ACTB (sc-47778, Santa Cruz). The immunoreactive bands were visualized with the Chemidoc XRS+ system (Bio-Rad) using SuperSignal West Femto chemiluminescent substrates (Thermo Fisher Scientific). The images were later quantified using AlphaEaseFC software (Alpha Innotech).

[6] = tested on: PASMCs; assay: BrdU proliferation in PASMCs; type: cell-based, human; details: IL-6/sIL-6R + hypoxia
Protocol: as §1
BrdU growth assay: Cell proliferation was assayed relative to day 0 using a BrdU Cell Proliferation Assay Kit (#6813, Cell Signaling) according to the manufacturer's protocol after incubation for 2 h with BrdU.

[7] = SU5416-hypoxia rats, vs vehicle control
[8] = SU5416-hypoxia rats, I-BET762 30 mg/kg daily i.p. or BRD2889 5 mg/kg i.p. every 5 days, final 2 weeks

COc1ccc(C#CC2CCCN(C(=O)/C=C/c3cc(OC)c(OC)c(OC)c3)C2=O)cc1 (stereo not drawn) [BRD2889, (E)-3-((4-methoxyphenyl)ethynyl)-1-(3-(3,4,5-trimethoxyphenyl)acryloyl)piperidin-2-one]
apoptosis (caspase 3/7 activity) ([1]; PAECs, IL-6/sIL-6R + hypoxia): reduced apoptosis; also recorded: reversing
apoptosis (caspase 3/7 activity) ([1]; hypoxic PAECs with siRNA knockdown of ISCU): did not reverse the hypoxic increase
apoptosis (caspase 3/7 activity) ([1]; hypoxic PAECs, BRD2889): reversed the increase in apoptosis; also recorded: reversed hypoxic alterations
ISCU transcript [2]: unaffected by BRD2889
mTOR transcript [2]: no change in mTOR
aortic blood pressure (mean arterial pressure, MAP) [3, 7]: without significant alterations
heart rate [3, 7]: without significant alterations
left ventricular function (LVPW thickness, LVEF, LVFS; echocardiography) [3, 7]: no alteration of left ventricular function; also recorded: did not exhibit altered left ventricular function
endothelial ISCU (immunofluorescence) ([3]; SU5416-hypoxia rats, BRD2889 5 mg/kg i.p. every 5 days): increased
lung GST activity ([3]; SU5416-hypoxia rats, BRD2889 5 mg/kg i.p. every 5 days, 5 mg/kg): reduced; also recorded: decreased
transcript levels of injury markers of liver (Got, Gpt1) and kidney (Cst3, Lcn2), tissue toxicity ([3]; SU5416-hypoxia rats, BRD2889 vs VC, RT-qPCR): no indication of overt tissue toxicities
Fulton index (RV/LV+S) [3, 8]: reducing; also recorded: reduced
arteriolar muscularization (α-SMA) [3, 8]: reducing; also recorded: reduced
cleaved caspase-3 (CC-3), endothelial apoptosis [3, 8]: reducing; also recorded: decreased
right ventricular systolic pressure (RVSP) [3, 8]: reducing; also recorded: reduced
ascites ([3]; three SU5416-hypoxic rats treated with drug): accumulation of mild ascites
GST activity ([4]; PAECs, IL-6/sIL-6R + hypoxia, BRD2889 1 uM): reversed the increase in GSTP1 activity; also recorded: reversed the IL-6/R+ hypoxia-mediated increase
GST enzyme activity ([4]; hypoxic PAECs): reduced the hypoxic increase in GST enzyme activity; also recorded: reversed hypoxic alterations
GSTP1 protein expression [5]: did not affect
ISCU protein [5]: failed to rescue ISCU
proliferation [6]: did not affect
